Measurements as given in patent US11613538B2, “Method of inhibiting or reducing a viral infection” (PTC Therapeutics, Inc., priority 2009, dated 2023).

System: hypoxia-induced VEGF production in HeLa cells
Experiment: cells
Format: cell-based, human
Details: Homo sapiens, HeLa

| SMILES | EC50 [nM] |
| --- | --- |
| O=C(OC1CCCC1)N1CCc2c([nH]c3ccc(Cl)cc23)[C@@H]1c1ccc(OC[C@@H](O)CO)cc1 [Compound 1323] | < 8 |
| CCOC(=O)N1CCc2c([nH]c3ccc(Cl)cc23)[C@@H]1c1ccc(OCC(CC)(CO)CO)cc1 [Compound 1324] | < 8 |
| CCC(CO)(CO)COc1ccc([C@H]2c3[nH]c4ccc(Cl)cc4c3CCN2C(=O)OCC(C)C)cc1 [Compound 1326] | < 8 |
| CCC(CO)(CO)COc1ccc([C@H]2c3[nH]c4ccc(Cl)cc4c3CCN2C(=O)OC2CCCC2)cc1 [Compound 1327] | < 8 |
| O=C(Oc1ccc(Cl)cc1)N1CCc2c([nH]c3ccc(Cl)cc23)[C@H]1c1ccc(O)cc1 [Compound 1332] | > 1000 |
| CCOC(=O)C(=O)N1CCc2c([nH]c3ccc(Cl)cc23)C1c1ccc(OC)cc1 (stereo not shown) [Compound 1334] | 40 to 200 |
| COc1ccc(C2c3[nH]c4ccc(Cl)cc4c3CCN2C(=O)C(=O)OC(C)C)cc1 (stereo not shown) [Compound 1338] | 8 to 40 |
| CCCOC(=O)C(=O)N1CCc2c([nH]c3ccc(Cl)cc23)C1c1ccc(OC)cc1 (stereo not shown) [Compound 1339] | 8 to 40 |
| CCOC(=O)N1CCc2c([nH]c3ccc(Br)cc23)C1c1ccc(OCC(O)CO)cc1 (stereo not shown) [Compound 1340] | 8 to 40 |
| CC(C)OC(=O)N1CCc2c([nH]c3ccc(Br)cc23)C1c1ccc(OCC(O)CO)cc1 (stereo not shown) [Compound 1341] | 8 to 40 |
| CC(C)COC(=O)N1CCc2c([nH]c3ccc(Br)cc23)C1c1ccc(OCC(O)CO)cc1 (stereo not shown) [Compound 1342] | < 8 |
| CCOC(=O)N1CCc2c([nH]c3ccc(Br)cc23)C1c1ccc(OCC[C@H](O)CO)cc1 (stereo partly shown) [Compound 1345] | < 8 |
| CC(C)OC(=O)N1CCc2c([nH]c3ccc(Br)cc23)C1c1ccc(OCC[C@H](O)CO)cc1 (stereo partly shown) [Compound 1346] | < 8 |
| CC(C)COC(=O)N1CCc2c([nH]c3ccc(Br)cc23)C1c1ccc(OCC[C@H](O)CO)cc1 (stereo partly shown) [Compound 1347] | < 8 |
| CC(C)OC(=O)N1CCc2c([nH]c3ccc(Br)cc23)C1c1ccc(OCC(C)(CO)CO)cc1 (stereo not shown) [Compound 1350] | < 8 |
| CC(C)COC(=O)N1CCc2c([nH]c3ccc(Br)cc23)C1c1ccc(OCC(C)(CO)CO)cc1 (stereo not shown) [Compound 1351] | < 8 |
| CCOC(=O)N1CCc2c([nH]c3ccc(Br)cc23)C1c1ccc(OCC(CC)(CO)CO)cc1 (stereo not shown) [Compound 1354] | < 8 |
| CCC(CO)(CO)COc1ccc(C2c3[nH]c4ccc(Br)cc4c3CCN2C(=O)OC(C)C)cc1 (stereo not shown) [Compound 1355] | < 8 |
| CCC(CO)(CO)COc1ccc(C2c3[nH]c4ccc(Br)cc4c3CCN2C(=O)OCC(C)C)cc1 (stereo not shown) [Compound 1356] | < 8 |
| CCOC(=O)N1CCc2c([nH]c3ccc(Cl)cc23)[C@@H]1c1ccc(OCC2(CO)COCOC2)cc1 [Compound 1359] | 8 to 40 |
| CC(C)OC(=O)N1CCc2c([nH]c3ccc(Cl)cc23)[C@@H]1c1ccc(OCC2(CO)COCOC2)cc1 [Compound 1360] | 8 to 40 |
| COC(=O)[C@H]1CCCN1CCCOc1ccc(C2c3[nH]c4ccc(Cl)cc4c3CCN2C(=O)Oc2ccc(Cl)cc2)cc1 (stereo partly shown) [Compound 1362] | < 8 |
| CCOC(=O)N1CCc2c([nH]c3ccc(Cl)cc23)C1c1cccc(OCCCN2CCN(C(C)=O)CC2)c1 (stereo not shown) [Compound 1363] | 40 to 200 |
| CC(=O)N1CCN(CCCOc2cccc(C3c4[nH]c5ccc(Cl)cc5c4CCN3C(=O)Oc3ccc(F)cc3)c2)CC1 (stereo not shown) [Compound 1364] | 40 to 200 |
| C=CCOc1ccc([C@H]2c3[nH]c4ccc(Cl)cc4c3CCN2C(=O)OCC2CC2)cc1 [Compound 1365] | < 8 |
| C=CCOc1ccc([C@H]2c3[nH]c4ccc(Cl)cc4c3CCN2C(=O)OCC2CCC2)cc1 [Compound 1366] | < 8 |

| SMILES | EC50 [nM] |
| --- | --- |
| O=C(OCC1CCC1)N1CCc2c([nH]c3ccc(Cl)cc23)[C@@H]1c1ccc(OCCCO)cc1 [Compound 1368] | < 8 |
| O=C(OCC1CC1)N1CCc2c([nH]c3ccc(Cl)cc23)[C@@H]1c1ccc(O)cc1 [Compound 1369] | 8 to 40 |
| O=C(OCC1CCC1)N1CCc2c([nH]c3ccc(Cl)cc23)[C@@H]1c1ccc(O)cc1 [Compound 1370] | 8 to 40 |
| COc1ccc([C@H]2c3[nH]c4ccc(Cl)cc4c3CCN2C(=O)OCC2CC2)cc1 [Compound 1371] | 8 to 40 |
| COc1ccc([C@H]2c3[nH]c4ccc(Cl)cc4c3CCN2C(=O)OCC2CCC2)cc1 [Compound 1372] | < 8 |
| O=C(OCC1CC1)N1CCc2c([nH]c3ccc(Cl)cc23)[C@@H]1c1ccc(OCC[C@H](O)CO)cc1 [Compound 1373] | < 8 |
| O=C(OCC1CCC1)N1CCc2c([nH]c3ccc(Cl)cc23)[C@@H]1c1ccc(OCC[C@H](O)CO)cc1 [Compound 1374] | < 8 |
| CC(CO)(CO)COc1ccc([C@H]2c3[nH]c4ccc(Cl)cc4c3CCN2C(=O)OCC2CC2)cc1 [Compound 1375] | < 8 |
| CC(CO)(CO)COc1ccc([C@H]2c3[nH]c4ccc(Cl)cc4c3CCN2C(=O)OCC2CCC2)cc1 [Compound 1376] | < 8 |
| O=C(OCC1CC1)N1CCc2c([nH]c3ccc(Cl)cc23)[C@@H]1c1ccc(OC[C@H](O)CO)cc1 [Compound 1377] | < 8 |
| CC1(COC(=O)N2CCc3c([nH]c4ccc(Cl)cc34)[C@@H]2c2ccc(OC[C@H](O)CO)cc2)CC1 [Compound 1378] | < 8 |
| O=C(OCC1CCC1)N1CCc2c([nH]c3ccc(Cl)cc23)[C@@H]1c1ccc(OC[C@H](O)CO)cc1 [Compound 1379] | < 8 |
| O=C(OCC1CC1)N1CCc2c([nH]c3ccc(Cl)cc23)[C@@H]1c1ccc(OC[C@@H](O)CO)cc1 [Compound 1380] | < 8 |
| CC1(COC(=O)N2CCc3c([nH]c4ccc(Cl)cc34)[C@@H]2c2ccc(OC[C@@H](O)CO)cc2)CC1 [Compound 1381] | < 8 |
| O=C(OCC1CCC1)N1CCc2c([nH]c3ccc(Cl)cc23)[C@@H]1c1ccc(OC[C@@H](O)CO)cc1 [Compound 1382] | < 8 |
| CCC(CO)(CO)COc1ccc([C@H]2c3[nH]c4ccc(Cl)cc4c3CCN2C(=O)OCC2CC2)cc1 [Compound 1383] | < 8 |
| CCC(CO)(CO)COc1ccc([C@H]2c3[nH]c4ccc(Cl)cc4c3CCN2C(=O)OCC2(C)CC2)cc1 [Compound 1384] | < 8 |
| CCC(CO)(CO)COc1ccc([C@H]2c3[nH]c4ccc(Cl)cc4c3CCN2C(=O)OCC2CCC2)cc1 [Compound 1385] | < 8 |
| O=C(OCC1CCC1)N1CCc2c([nH]c3ccc(Cl)cc23)[C@@H]1c1ccc(OCC2(CO)COCOC2)cc1 [Compound 1386] | 8 to 40 |
| CCOC(=O)CNC(=O)c1cccc(C2c3[nH]c4ccc(Cl)cc4c3CCN2C(=O)OCC)c1 (stereo not shown) [Compound 1387] | 40 to 200 |
| CCOC(=O)N1CCc2c([nH]c3ccc(Cl)cc23)C1c1cccc(C(=O)NCC(=O)O)c1 (stereo not shown) [Compound 1388] | > 1000 |
| CCOC(=O)N1CCc2c([nH]c3ccc(Cl)cc23)C1c1cccc(C(=O)N(C)CC(=O)O)c1 (stereo not shown) [Compound 1389] | > 1000 |
| CCOC(=O)N1CCc2c([nH]c3ccc(Br)cc23)C1c1ccc(C(=O)N(C)CC(=O)O)cc1 (stereo not shown) [Compound 1390] | > 1000 |
| CCOC(=O)N1CCc2c([nH]c3ccc(Cl)cc23)C1c1ccc(OCCCOCCOC)cc1 (stereo not shown) [Compound 1396] | > 1000 |
| [H]/N=C(\N)NCCOc1ccc(C2c3[nH]c4ccc(Cl)cc4c3CCN2C(=O)OCC)cc1 (stereo not shown) [Compound 1397] | 40 to 200 |
| CCOC(=O)N1CCc2c([nH]c3ccc(Cl)cc23)C1c1ccc(OCCNc2nccnn2)cc1 (stereo not shown) [Compound 1398] | 40 to 200 |
